Like-named read-outs stand apart in the source and are kept apart here.
How the values were obtained:
[1] = system: wild buckwheat (Polygonum convolvulus, POLCO); assay: Greenhouse postemergence trial, % visual injury; type: in vivo
[2] = system: nutsedge (Cyperus esculentus, CYPES); assay: Greenhouse postemergence trial, % visual injury; type: in vivo
[3] = system: velvetleaf (Abutilon theophrasti, ABUTH); assay: Greenhouse postemergence trial, % visual injury; type: in vivo; conditions: 140 g ae/ha alone; 20-22 d
[4] = system: common chickweed (Stellaria media, STEME); assay: Greenhouse postemergence trial, % visual injury; type: in vivo
[5] = system: kochia (KCHSC, Kochia scoparia); assay: Greenhouse postemergence trial, % visual injury; type: in vivo
Method: Following the protocol in Example 1, compound 1 and compound 2 were combined with 2,4 D EHE (EC) and applied to kochia (KCHSC, Kochia scoparia) and the phytotoxicity of the herbicidal compositions was measured.
Following the protocol in Example 1, compound 1 (EC) and Compound 2 (SC) were combined with diflufenzopyr and applied to kochia (Kochia scoparia, KCHSC) and the phytotoxicity of the herbicidal composition was measured.

[6] = system: wild pansy (Viola tricolor, VIOTR); assay: Greenhouse postemergence trial, % visual injury
winter wheat (TRZAW) = conditions: winter wheat (Triticum aestivum), in vivo
spring barley (HORVS) = conditions: in vivo
[7] = system: common lambsquarters (CHEAL, Chenopodium album L.); assay: Greenhouse postemergence trial, % visual injury; type: in vivo; conditions: Chenopodium album, post-emergence; 140 g ae/ha alone; 20-22 d; read-out: % visual injury Obs
maize (ZEAMX) = conditions: in vivo
[8] = system: Canadian thistle (CIRAR, Cirsium arvense); assay: Greenhouse postemergence trial, % visual injury; conditions: Cirsium arvense, post-emergence;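 further: plants sprayed at second to third true leaf stage, injury scored visually 20-22 d later against solvent-blank sprayed controls, 0 meaning no injury and 100 complete kill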
[9] = system: ivyleaf morningglory (Ipomoea hederacea, IPOHE); assay: Greenhouse postemergence trial, % visual injury; conditions: Ipomoea, post-emergence, read-out: % visual injury, Obs, IPOHE, 140 g ae/ha
[10] = system: sunflower (Helianthus annus, HELAN); assay: Greenhouse postemergence trial, % visual injury; type: in vivo; conditions: 140 g ae/ha alone; 20-22 d
[11] = system: Russian thistle (Salsola iberica, SASKR); assay: Greenhouse postemergence trial, % visual injury; type: in vivo
[12] = system: wild mustard (Sinapis arvensis, SINAR); assay: Greenhouse postemergence trial, % visual injury; type: in vivo
[13] = system: grain sorghum (Sorghum vulgare, SORVU); assay: Greenhouse postemergence trial, % visual injury; type: in vivo
[14] = system: pigweed (AMARE, Amaranthus retroflexus); assay: Greenhouse postemergence trial, % visual injury; type: in vivo; conditions: for % visual injury, Obs: AMARE
[15] = system: spring rape (Brassica napus, BRSNN); assay: Greenhouse postemergence trial, % visual injury; conditions: Brassica napus, post-emergence
common rice (ORYSA) = conditions: in vivo
[16] = system: poinsettia (Euphorbia heterophylla, EPHHL); assay: Greenhouse postemergence trial, % visual injury; conditions: for pest or weed control at 140 g/ha: Euphorbia heterophylla, post-emergence
[17] = system: winter rape (BRSNW, Brassica napus); assay: Greenhouse postemergence trial, % visual injury; type: in vivo
[18] = Hordeum vulgare (spring barley)
[19] = read-out: % visual injury (Obs)

CCCCC(CC)COC(=O)COc1ccc(Cl)cc1Cl (stereo not drawn) [2,4-D EHE, 2-ethylhexyl (2,4-dichlorophenoxy)acetate, reference compound]
% visual injury (Obs) ([1]; 2,4-D EHE 400 g ae/ha): 80%
% visual injury (Obs) ([1]; 2,4-D EHE 420 g ae/ha): 60%
% visual injury Obs ([1]; 140 g ae/ha alone, 20-22 d): 55%
% visual injury (Obs) ([2]; 2,4-D EHE 140 g ae/ha): 0%
% visual injury, Obs ([2]; CYPES, 140 g ae/ha): 10%
pest or weed control at 140 g/ha ([2]; Cyperus, post-emergence, 140 g ae/ha alone, 20-22 d, read-out: % visual injury Obs): 0%
% visual injury Obs [3]: 55%
% visual injury (Obs) ([4]; 2,4-D EHE 400 g ae/ha): 10%
% visual injury Obs ([4]; 140 g ae/ha alone, 20-22 d): 63%
% visual injury (Obs) ([5]; 2,4-D EHE 400 g ae/ha): 10%
% visual injury Obs ([5]; 280 g ae/ha alone, 20-22 d): 10%
pest or weed control at 400 g/ha ([5]; Bassia scoparia, post-emergence, KCHSC, 400 g ae/ha, read-out: % visual injury, Obs): 50%
% visual injury (Obs) ([6]; 2,4-D EHE 140 g ae/ha): 35%
% visual injury (Obs) ([6]; 2,4-D EHE 400 g ae/ha): 65%
pest or weed control at 140 g/ha ([6]; Viola tricolor, post-emergence, read-out: % visual injury Obs): 35%
% visual injury, Obs (winter wheat (TRZAW)): 0%
% visual injury (Obs) (spring barley (HORVS); [18]): 0%
% visual injury Obs (spring barley (HORVS); [18]): 0%
% visual injury (Obs) (spring barley (HORVS); spring barley (Hordeum vulgare)): 10%
pest or weed control at 140 g/ha [7]: 73%
% visual injury Obs (maize (ZEAMX); Zea mays (maize)): 0%
% visual injury (Obs) (maize (ZEAMX); maize (Zea mays)): 0%
% visual injury, Obs (maize (ZEAMX); maize (Zea mays)): 0%
pest or weed control at 140 g/ha [8, 19]: 50%
pest or weed control at 400 g/ha [8, 19]: 70%
pest or weed control at 140 g/ha ([8]; read-out: % visual injury Obs): 50%
pest or weed control at 280 g/ha ([8]; read-out: % visual injury Obs): 73%
pest or weed control at 140 g/ha [9]: 93%
% visual injury Obs [10]: 75%
% visual injury (Obs) ([11]; 2,4-D EHE 400 g ae/ha): 70%
% visual injury, Obs ([11]; SASKR, 400 g ae/ha): 70%
% visual injury (Obs) ([12]; 2,4-D EHE 400 g ae/ha): 97%
% visual injury, Obs ([12]; SINAR, 400 g ae/ha): 97%
% visual injury (Obs) ([13]; 2,4-D EHE 140 g ae/ha): 0%
% visual injury Obs ([13]; 140 g ae/ha alone, 20-22 d): 0%
% visual injury, Obs ([14]; 140 g ae/ha): 75%
% visual injury, Obs ([14]; 400 g ae/ha): 80%
pest or weed control at 140 g/ha ([14]; Amaranthus retroflexus, post-emergence, 140 g ae/ha alone, 20-22 d, read-out: % visual injury Obs): 95%
pest or weed control at 280 g/ha ([14]; Amaranthus retroflexus, post-emergence, 280 g ae/ha alone, 20-22 d, read-out: % visual injury Obs): 30%
plant injury at 140 g/ha [15, 19]: 60%
plant injury at 400 g/ha [15, 19]: 75%
plant injury at 140 g/ha ([15]; read-out: % visual injury Obs): 60%
plant injury at 140 g/ha ([15]; read-out: % visual injury, Obs): 65%
% visual injury (Obs) (common rice (ORYSA)): 0%
% visual injury, Obs (common rice (ORYSA)): 10%
% visual injury (Obs) ([16]; 2,4-D EHE 400 g ae/ha): 60%
pest or weed control at 140 g/ha ([16]; read-out: % visual injury Obs, 140 g ae/ha alone, 20-22 d): 35%
pest or weed control at 140 g/ha ([16]; read-out: % visual injury, Obs, EPHHL, 140 g ae/ha): 5%
% visual injury (Obs) ([17]; 2,4-D EHE 400 g ae/ha): 93%
% visual injury Obs ([17]; 280 g ae/ha alone, 20-22 d): 85%
% visual injury, Obs ([17]; BRSNW, 400 g ae/ha): 93%

Source: patent US9521847B2, “Synergistic weed control from applications of pyridine carboxylic acid herbicides and synthetic auxin herbicides and/or auxin transport inhibitors” (Dow AgroSciences LLC, priority 2014, dated 2016)
